Assay results as given in article PMC3849221 (NeuroImage, 2013).
Like-named read-outs stand apart in the source and are kept apart here.

Tests used:
CB1 receptor [1] = molecular target: T1, CB1 receptor (Homo sapiens, UniProt P21554); assay type: binding
Lipophilicity LogD7.4 = assay type: physicochemical; conditions: n-octanol / 0.15 M sodium phosphate buffer pH 7.4, room temperature, 6 measurements
CB1 receptor [2] = conditions: ref Terry et al., 2010, cited from earlier work; for Specific binding (%) / VT (striatum) Baseline / VT (striatum) Preblocked: monkey striatum
CB1 receptor [3] = molecular target: T1, CB1 receptor; conditions: cited from earlier work; for VT / Intersubject Variability of VT (SD/mean): human; for VT: mean±SD
[4] = human parietal cortex, displacement of [3H]MePPEP, n=6
[5] = Frontal, n=9, 120min, ref Terry et al., 2010
[6] = Putamen, n=9, 120min, ref Terry et al., 2010
[7] = Thalamus, n=9, 120min, ref Terry et al., 2010
[8] = Frontal, n=17, 150min, ref Terry et al, 2009
[9] = Putamen, n=17, 150min, ref Terry et al, 2009
[10] = Thalamus, n=17, 150min, ref Terry et al, 2009
[11] = Cingulate, n=10, 90min, ref Wong et al, 2010
[12] = Globus pallidus, n=10, 90min, ref Wong et al, 2010
[13] = Putamen, n=10, 90min, ref Wong et al, 2010

T1 sequence (P21554 whole entry): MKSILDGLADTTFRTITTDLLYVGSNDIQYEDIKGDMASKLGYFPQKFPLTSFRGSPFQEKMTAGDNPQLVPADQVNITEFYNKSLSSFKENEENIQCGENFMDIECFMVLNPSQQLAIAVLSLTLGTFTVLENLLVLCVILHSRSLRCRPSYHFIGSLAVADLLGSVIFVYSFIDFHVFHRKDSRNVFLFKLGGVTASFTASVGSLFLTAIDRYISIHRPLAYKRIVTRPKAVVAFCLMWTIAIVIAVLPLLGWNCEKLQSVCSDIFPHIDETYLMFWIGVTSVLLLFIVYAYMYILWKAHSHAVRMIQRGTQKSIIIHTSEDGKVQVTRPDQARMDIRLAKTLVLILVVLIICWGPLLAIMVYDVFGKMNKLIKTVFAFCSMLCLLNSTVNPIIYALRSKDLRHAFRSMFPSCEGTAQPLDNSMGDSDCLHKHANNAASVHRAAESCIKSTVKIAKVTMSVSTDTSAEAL

Structure (SMILES): N#Cc1ccc(S(=O)(=O)NC(=N)N2CC(c3ccccc3)C(c3ccc(Cl)cc3)=N2)cc1 (stereo not drawn) [^11C-SD5024, [cyano-^11C](−)-3-(4-chlorophenyl)-N-[(4-cyanophenyl)sulfonyl]-4-phenyl-4,5-dihydro-1H-pyrazole-1-carboxamidine]
- Ki (CB1 receptor [1]; [4]): 0.47 nM

Structure (SMILES): [2H]C([18F])Oc1cccc([C@H]2C[C@@H](N[C@H](C)c3ccccc3)C(=O)N2c2ccc(C(F)(F)F)cc2)c1 (stereo partly shown) [^18F-FMPEP-d2]
- LogD7.4 (Lipophilicity LogD7.4): 4.24±0.08
- percentage of specific binding in monkey brain (CB1 receptor [2]; monkey brain): 85%
- Specific binding (%) (CB1 receptor [2]): 85%
- VT (striatum) Baseline (CB1 receptor [2]): 35.4 mL·cm^−3
- VT (striatum) Preblocked (CB1 receptor [2]): 5.4 mL·cm^−3
- VT (CB1 receptor [3]; [5]): 22.7±6.4 mL · cm^−3
- Intersubject Variability of VT (SD/mean) (CB1 receptor [3]; [5]): 28%
- VT (CB1 receptor [3]; [6]): 24.3±7.2 mL · cm^−3
- Intersubject Variability of VT (SD/mean) (CB1 receptor [3]; [6]): 29%
- VT (CB1 receptor [3]; [7]): 9.6±2.5 mL · cm^−3
- Intersubject Variability of VT (SD/mean) (CB1 receptor [3]; [7]): 26%
- peak brain uptake (CB1 receptor [3]; species not given, ref Terry et al., 2010): ~ 6 SUV

Structure (SMILES): C[C@@H](N[C@@H]1C[C@H](c2cccc(O[11CH3])c2)N(c2ccc(C(F)(F)F)cc2)C1=O)c1ccccc1 [^11C-MePPEP]
- LogD7.4 (Lipophilicity LogD7.4): 4.77±0.27
- Specific binding (%) (CB1 receptor [2]): 88%
- VT (striatum) Baseline (CB1 receptor [2]): 24.3 mL·cm^−3
- VT (striatum) Preblocked (CB1 receptor [2]): 2.9 mL·cm^−3
- VT (CB1 receptor [3]; [8]): 22.4±12.8 mL · cm^−3
- Intersubject Variability of VT (SD/mean) (CB1 receptor [3]; [8]): 57%
- VT (CB1 receptor [3]; [9]): 29.1±17.4 mL · cm^−3
- Intersubject Variability of VT (SD/mean) (CB1 receptor [3]; [9]): 60%
- VT (CB1 receptor [3]; [10]): 11.2±5.0 mL · cm^−3
- Intersubject Variability of VT (SD/mean) (CB1 receptor [3]; [10]): 44%

Structure (SMILES): COc1ccc(-c2c(C#N)c(C(=O)NN3CCCCC3)nn2-c2ccc(Cl)cc2Cl)cc1 [OMAR]
- Ki (CB1 receptor [1]; [4]): 2.05 nM

Structure (SMILES): COc1ccc(-c2c(C#N)c(C(=O)NN3CCCCC3)nn2-c2ccc(Cl)cc2Cl)cc1 [^11C-OMAR]
- Ki (CB1 receptor [1]): 2.05 nM
- VT (CB1 receptor [3]; [11]): 1.23±0.16 mL · cm^−3
- Intersubject Variability of VT (SD/mean) (CB1 receptor [3]; [11]): 13%
- VT (CB1 receptor [3]; [12]): 1.47±0.25 mL · cm^−3
- Intersubject Variability of VT (SD/mean) (CB1 receptor [3]; [12]): 17%
- VT (CB1 receptor [3]; [13]): 1.32±0.20 mL · cm^−3
- Intersubject Variability of VT (SD/mean) (CB1 receptor [3]; [13]): 15%

Structure (SMILES): Cc1ccc(OC(C)(C)C(=O)N[C@@H](C)[C@@H](Cc2ccc(OCCF)cc2)c2cccc(C#N)c2)nc1 [^18F-MK-9470]
- Intersubject Variability of VT (SD/mean) (CB1 receptor [3]; Frontal, n=12, 700, 360, 150min, ref Sanabria-Bohórquez et al., 2010): 58%
- Intersubject Variability of VT (SD/mean) (CB1 receptor [3]; Putamen, n=12, 700, 360, 150min, ref Sanabria-Bohórquez et al., 2010): 53%
- Intersubject Variability of VT (SD/mean) (CB1 receptor [3]; Thalamus, n=12, 700, 360, 150min, ref Sanabria-Bohórquez et al., 2010): 60%
